Experimental findings from ChEMBL document CHEMBL1201862, “PubChem BioAssay data set” (2004) are described below.

SMILES strings stand for the structures. Calls of active or inactive are those of the source.

The target in test [1] is T1, Carboxy-terminal domain RNA polymerase II polypeptide A small phosphatase 1 (Homo sapiens, UniProt Q9GZU7).
T1 sequence (Q9GZU7 whole entry): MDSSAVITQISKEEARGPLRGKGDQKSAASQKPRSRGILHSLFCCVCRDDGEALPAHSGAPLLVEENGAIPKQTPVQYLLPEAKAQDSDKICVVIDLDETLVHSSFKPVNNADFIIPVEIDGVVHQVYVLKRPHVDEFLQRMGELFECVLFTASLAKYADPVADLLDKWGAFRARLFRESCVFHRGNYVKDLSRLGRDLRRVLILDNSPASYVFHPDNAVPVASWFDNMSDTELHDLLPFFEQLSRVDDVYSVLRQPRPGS
As to the kind of experiment: CTDSP1 inhibitors, concentration-response, biochemical, absorbance readout, ultra-high-throughput screen actives (AID 540297). The test is classed as functional.

Test [2] can be described thus: microbe, parasite or virus in culture. The format is functional. The following applies: Mycobacterium tuberculosis.
Test [3] in a line: Luminescence Cell-Based Dose Confirmation HTS to Identify Activators of 5'UTR Stem-Loop Driven Alpha-Synuclein mRNA Translation in H4 Neuroglioblastoma Cells. [Related pubchem assays: 1829 (Project Summary), 1814 (Primary HTS)]. The test is classed as functional.
For a further test, the system named is H4. The test is described as follows: Luminescence Cell-Based Dose Response HTS to Identify Activators of 5'UTR Stem-Loop Driven Prion Protein mRNA Translation in H4 Neuroglioblastoma Cells. [Related pubchem assays: 1829 (Project Summary), 1814 (Primary HTS)]. The test is classed as functional. The following applies: Homo sapiens.
Test [4] concerns the target FAD-linked sulfhydryl oxidase ALR (Homo sapiens, UniProt P55789). The test is described as follows: ALR-catalysed DTT oxidation blockers – biochemical, H2O2 detection, luminescence, cherry-pick, dose response (AID 493248).
The target in test [5] is T2, Heat shock factor protein 1 (Mus musculus, UniProt P38532).
T2 sequence (P38532 whole entry): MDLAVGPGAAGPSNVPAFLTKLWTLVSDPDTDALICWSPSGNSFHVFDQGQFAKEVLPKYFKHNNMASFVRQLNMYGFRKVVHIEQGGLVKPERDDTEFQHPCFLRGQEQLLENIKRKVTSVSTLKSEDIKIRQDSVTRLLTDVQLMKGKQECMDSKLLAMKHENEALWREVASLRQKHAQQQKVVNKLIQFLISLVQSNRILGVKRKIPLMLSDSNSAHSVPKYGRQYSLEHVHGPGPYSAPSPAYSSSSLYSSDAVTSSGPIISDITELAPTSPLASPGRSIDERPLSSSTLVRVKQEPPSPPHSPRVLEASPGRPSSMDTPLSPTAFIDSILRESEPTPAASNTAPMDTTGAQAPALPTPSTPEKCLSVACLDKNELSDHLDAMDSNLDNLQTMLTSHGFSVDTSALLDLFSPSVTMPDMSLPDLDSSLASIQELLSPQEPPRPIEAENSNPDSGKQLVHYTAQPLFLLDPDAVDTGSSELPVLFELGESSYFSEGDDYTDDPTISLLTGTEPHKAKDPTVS
As to the kind of experiment: decrease of HSF1-responsive luciferase luminescence – cell-based, NIH3T3, dose retest, confirmation (AID 2382).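 Also: NIH3T3 fibroblasts with HSF1-driven luciferase reporter stressed by proteasome inhibitor MG132; luminescence from HSF1-driven luciferase expression after 8 hours of MG132 stress.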 The format is functional.

Another test concerns the target Large T antigen (Simian virus 40, UniProt P03070). The format is functional, Betapolyomavirus macacae.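 Also: Confirmatory-stage PubChem screen for compounds that inhibit SV40 T antigen.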
A short description of test [6]: Trypanosoma cruzi growth suppression in host cells – NIH3T3 host cells, beta-gal luminescence, confirmation (AID 2044).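 Also: intracellular parasites grown in NIH/3T3 mouse fibroblasts as host cells; luminescent beta-galactosidase reporter signal from transgenic T. cruzi replicating inside host cells; inhibitors lower the luminescence signal.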 The test is classed as functional, cell-based.
Test [7] in a line: NIH3T3 cell viability loss – ATP luminescence, mouse fibroblasts, counter-screen, dose response (AID 2010).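 Also: cells exposed to compound for about 90 hours before reading.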 The test is classed as functional, cell-based.
Test [8] is described as follows: NIH-3T3 fibroblast cytotoxicity, dose response, cytotoxicity control, cell-based, fluorescence, Alamar Blue, secondary assay (AID 2327).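 Also: NIH-3T3 mouse fibroblasts cultured with fluconazole at 8 µg/mL.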 The format is functional.
The nature of test [9]: fluconazole-exposed Candida albicans growth modulators – fluorescence, retest, confirmation (AID 2467). The test is classed as functional, cell-based.
In test [10] the target is Luciferin 4-monooxygenase (Photinus pyralis, UniProt P08659). The test is described as follows: inhibition of purified Photinus pyralis luciferase – biochemical, luminescence, dose response (AID 1891).
Test [11] is described as follows: Luminescence Cell-Based Dose Confirmation HTS to Identify Inhibitors of Platelet Dense Granule Release. [Related pubchem assays: 1663 (Primary HTS), 1678 (Summary of Project)]. The test is classed as functional.
The nature of test [12]: viability of uninfected HEp-2 cells – cell-based, HTS, cytotoxicity control for RSV inhibitor project, dose response (AID 2410). The test is classed as functional. The following applies: human respiratory syncytial virus.
The target in test [13] is T3, Histone-lysine N-methyltransferase NSD2 (Homo sapiens, UniProt O96028).
T3 sequence (O96028 whole entry): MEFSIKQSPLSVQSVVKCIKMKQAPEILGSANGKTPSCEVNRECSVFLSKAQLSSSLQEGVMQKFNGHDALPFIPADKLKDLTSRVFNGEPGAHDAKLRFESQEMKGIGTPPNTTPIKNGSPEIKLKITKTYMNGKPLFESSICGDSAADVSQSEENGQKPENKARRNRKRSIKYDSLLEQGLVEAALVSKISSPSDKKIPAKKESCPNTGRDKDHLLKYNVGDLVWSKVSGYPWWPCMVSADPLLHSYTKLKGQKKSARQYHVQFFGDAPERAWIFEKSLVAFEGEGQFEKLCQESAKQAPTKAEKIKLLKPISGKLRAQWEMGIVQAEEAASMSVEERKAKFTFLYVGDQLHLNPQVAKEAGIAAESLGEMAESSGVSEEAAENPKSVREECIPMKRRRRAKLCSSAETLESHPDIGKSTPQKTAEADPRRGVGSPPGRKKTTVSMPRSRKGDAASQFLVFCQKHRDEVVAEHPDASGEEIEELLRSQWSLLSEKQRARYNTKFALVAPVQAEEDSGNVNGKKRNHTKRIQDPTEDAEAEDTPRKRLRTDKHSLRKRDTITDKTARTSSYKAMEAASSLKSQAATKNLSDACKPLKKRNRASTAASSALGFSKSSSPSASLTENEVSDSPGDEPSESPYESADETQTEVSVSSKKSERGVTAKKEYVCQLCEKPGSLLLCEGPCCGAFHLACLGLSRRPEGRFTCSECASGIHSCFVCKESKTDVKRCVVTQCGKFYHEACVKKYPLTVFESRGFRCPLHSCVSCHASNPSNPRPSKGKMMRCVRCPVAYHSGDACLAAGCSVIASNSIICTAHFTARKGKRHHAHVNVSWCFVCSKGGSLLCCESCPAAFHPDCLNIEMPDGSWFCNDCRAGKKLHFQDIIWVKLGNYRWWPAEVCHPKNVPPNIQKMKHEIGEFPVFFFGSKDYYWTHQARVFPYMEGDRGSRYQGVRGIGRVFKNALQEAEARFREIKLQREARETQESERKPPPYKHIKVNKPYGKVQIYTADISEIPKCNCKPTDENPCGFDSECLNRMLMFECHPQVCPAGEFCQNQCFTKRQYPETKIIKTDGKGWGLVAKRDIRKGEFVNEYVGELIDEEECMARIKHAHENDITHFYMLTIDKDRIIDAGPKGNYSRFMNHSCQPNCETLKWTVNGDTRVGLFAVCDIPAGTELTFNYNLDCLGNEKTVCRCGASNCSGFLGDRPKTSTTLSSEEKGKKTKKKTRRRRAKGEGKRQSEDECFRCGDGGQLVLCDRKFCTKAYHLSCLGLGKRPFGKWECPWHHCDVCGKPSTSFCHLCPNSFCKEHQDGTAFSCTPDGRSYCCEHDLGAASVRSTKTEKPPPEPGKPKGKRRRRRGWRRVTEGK
The format is biochemical.

Luciferin 4-monooxygenase, sequence (P08659 whole entry): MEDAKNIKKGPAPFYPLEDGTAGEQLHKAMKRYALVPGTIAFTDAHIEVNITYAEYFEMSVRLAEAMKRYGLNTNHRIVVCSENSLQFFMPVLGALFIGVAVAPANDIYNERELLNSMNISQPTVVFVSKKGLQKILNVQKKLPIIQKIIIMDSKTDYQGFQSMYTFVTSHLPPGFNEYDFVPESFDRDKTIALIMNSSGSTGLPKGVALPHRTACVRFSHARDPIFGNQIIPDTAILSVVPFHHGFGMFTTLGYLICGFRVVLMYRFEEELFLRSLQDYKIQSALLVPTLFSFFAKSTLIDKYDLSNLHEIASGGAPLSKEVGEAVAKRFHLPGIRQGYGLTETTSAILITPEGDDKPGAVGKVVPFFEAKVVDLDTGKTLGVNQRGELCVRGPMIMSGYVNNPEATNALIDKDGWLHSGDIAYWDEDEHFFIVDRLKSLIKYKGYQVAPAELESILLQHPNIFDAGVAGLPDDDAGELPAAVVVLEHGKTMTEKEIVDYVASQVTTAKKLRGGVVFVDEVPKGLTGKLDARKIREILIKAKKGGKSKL
Large T antigen, sequence (P03070 whole entry): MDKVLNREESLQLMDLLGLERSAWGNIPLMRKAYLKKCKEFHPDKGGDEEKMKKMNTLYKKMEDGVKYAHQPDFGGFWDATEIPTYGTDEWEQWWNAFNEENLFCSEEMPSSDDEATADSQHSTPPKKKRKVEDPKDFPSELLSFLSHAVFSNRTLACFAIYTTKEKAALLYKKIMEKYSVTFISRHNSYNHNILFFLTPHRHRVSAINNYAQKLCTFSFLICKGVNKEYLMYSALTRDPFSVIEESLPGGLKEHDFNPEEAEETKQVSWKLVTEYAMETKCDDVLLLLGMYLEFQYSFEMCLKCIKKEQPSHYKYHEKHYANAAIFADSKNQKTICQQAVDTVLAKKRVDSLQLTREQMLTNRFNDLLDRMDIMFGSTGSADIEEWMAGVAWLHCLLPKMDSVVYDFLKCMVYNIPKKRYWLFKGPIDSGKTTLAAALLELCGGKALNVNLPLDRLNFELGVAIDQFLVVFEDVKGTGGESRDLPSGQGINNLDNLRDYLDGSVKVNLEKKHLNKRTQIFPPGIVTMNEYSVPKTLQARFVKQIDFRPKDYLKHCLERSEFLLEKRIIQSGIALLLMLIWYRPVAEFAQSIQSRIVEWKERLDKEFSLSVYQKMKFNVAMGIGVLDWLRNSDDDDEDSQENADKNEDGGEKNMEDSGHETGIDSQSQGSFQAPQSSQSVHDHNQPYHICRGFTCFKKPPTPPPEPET
FAD-linked sulfhydryl oxidase ALR, sequence (P55789 whole entry): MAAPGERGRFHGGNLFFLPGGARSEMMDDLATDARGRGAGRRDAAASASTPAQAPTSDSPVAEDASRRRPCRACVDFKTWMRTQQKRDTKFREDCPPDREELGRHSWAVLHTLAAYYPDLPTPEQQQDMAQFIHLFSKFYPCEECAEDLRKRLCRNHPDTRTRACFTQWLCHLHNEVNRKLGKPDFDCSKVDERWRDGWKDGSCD

As a reminder, the IC50 is the concentration that gives 50% inhibition. Turning to `CC(=O)c1sc(C(=O)O)c(-c2ccco2)c1-c1ccco1`, in [1], the IC50 was 15.5 µM (active).
The term EC50 denotes the concentration needed to bring the measured effect to its halfway point. `CC(C)(C)C1CCc2c(sc3nc(SCC(N)=O)nc(N)c23)C1` (configuration not stated): the CC50 in test [2] is > 40 µM (active). Further, the EC50 in test [3] is 27.3 µM (active); in the test on H4 it was 24.9 µM (active).
Broadly, the AC50 is the midpoint of the concentration-response curve, whichever way the signal moves. As to `COc1ccc(C(=O)Oc2ccc(/C=N/O)cc2)cc1`, in [4], the concentration at half-maximal activity (AC50) was 0.247 µM (active). In test [5], the EC50 is > 195 µM (not active).
`C=CCn1c(=O)/c(=C/c2ccc(Cl)cc2)s/c1=C(/C#N)c1nnc2n1CCCCC2`: the CC50 in test [2] is 40 µM (active).
As to `CCC[n+]1c2ccccc2cc2ccccc21`, at Large T antigen, the IC50 was 46.2 µM (active). Further, the EC50 in test [6] was 0.157 µM (active); in test [7], > 60 µM (not active); in test [8], > 160 µM (inactive); in test [9] it was 0.672 µM (active).
For the compound `O=C(NCc1cccnc1)C(=O)NCC(c1ccco1)N1CCN(c2ccccc2)CC1` (configuration not stated), the AC50 in test [4] is 2.78 µM (active).
The same measure, in the same setting: the value for `Cc1cccc(-n2c(CCn3nc(C)c([N+](=O)[O-])c3C)n[nH]c2=S)c1` was 4.3 µM (active).
For the compound `O=C(/C=C/c1ccco1)NCC(=O)N/N=C/c1ccc([N+](=O)[O-])cc1`, in test [1], the IC50 is 5.25 µM (active).
Consider `C/C(=N\NC(=O)c1ccccc1O)c1ccc(NC(=O)c2ccccc2)cc1`, for which the IC50 in [1] was 7.56 µM (active).
Consider `COc1ccccc1C(=O)Nc1ccc(C2=NNC(=O)CC2C)cc1` (configuration not stated), for which the EC50 is > 112 µM (not active) in test [10] and 0.361 µM (active) in test [11].
With `O=C(Nc1ccn(Cc2ccc(F)cc2)n1)c1ccncc1`, the EC50 in test [10] and in test [11] was > 112 µM (not active) throughout.
Take `C(=N\c1ccc(Nc2ccccc2)cc1)/c1ccc2ccccc2c1`: the IC50 on Large T antigen is 8.25 µM (active).
With `Cn1c(S)nnc1CCNC(=O)OC(C)(C)C`, in [4], the AC50 was 2.79 µM (active).
For the compound `CCOC(=O)c1[nH]nc(-c2cc(CC)c(O)cc2O)c1-c1cscn1`, the IC50 on Large T antigen was 20.6 µM (active). Further, the CC50 in test [12] was 22.6 µM (active).
Turning to `NC(=O)N1CCN(C(=O)c2ccco2)CC1`, the EC50 in test [10] and in test [11] was > 112 µM (not active) throughout.
On to `NC(=O)C1CCN(C2=C(NS(=O)(=O)c3ccc(Cl)cc3)C(=O)c3ccccc3C2=O)CC1`, for which the AC50 in test [13] is 14.1 µM (active).
In the case of `SC1=NC2(CCCCC2)NN1c1ccccc1`, the AC50 in [4] is 1.79 µM (active).
With `Cc1ccc(NC(=O)C2CCN(S(=O)(=O)c3ccc4c(c3)NC(=O)C(C)S4)CC2)c(Cl)c1` (configuration not stated), the CC50 in [2] is > 40 µM (active).
Consider `Cc1noc(NS(=O)(=O)c2ccc(NC(=O)c3cnc4n(c3=O)CCS4)cc2)c1C`, for which, in test [4], the concentration at half-maximal activity (AC50) was 0.255 µM (active).
As to `COc1ccc(CN2CCN(C(=O)Cn3nc(C(=O)O)c4ccccc4c3=O)CC2)cc1F`, the EC50 in test [10] is > 112 µM (not active); in test [11], 7.7 µM (active).
On to `CC(C)=NNc1nc(-c2ccccc2)cs1`, for which, in test [4], the AC50 is 0.601 µM (active).
With `CCN1CCCCC(=N/O)/C(=N/O)CCCC1`, in test [13], the AC50 is > 20 µM (inactive).
Turning to `Cc1nn(-c2ccccc2)c2nc(O)c(CNc3ccc(N4CCOCC4)cc3)cc12`, the IC50 at Large T antigen is 5.01 µM (active).
Consider `Cc1ccc(S(=O)(=O)N2CCN=C2SCc2cccnc2)cc1`, for which the AC50 in test [4] is 0.046 µM (active).
As for `CCOc1ccccc1N=C(S)N1CCN(c2ccc(O)cc2)CC1`, the IC50 at Large T antigen is 6.28 µM (active).
